Experimental data reported in US11168102B1, “Bicyclic heteroaryl compounds and uses thereof” (Revolution Medicines, Inc., priority 2019, dated 2021).

Assays:
[1] = target: SOS1 catalytic domain (residues 564-1049) (Homo sapiens (Human), UniProt Q07889); test: Potency assay: binding affinity to SOS1 by Surface Plasmon Resonance (SPR); conditions: avi-tagged SOS1 catalytic domain immobilized on sensor chip; 1:1 equilibrium binding fit
[2] = system: cellular pERK in PC-9 cells (EGFR Ex19Del); test: Potency assay: pERK (AlphaLISA SureFire Ultra p-ERK1/2) in PC-9 cells; assay type: cell-based; conditions: Homo sapiens, PC-9, 1 h, PC-9 cells (EGFR Ex19Del), 1 hour incubation, AlphaLISA SureFire Ultra p-ERK1/2; read-out: SOS1 pERK IC50
[3] = target: SOS1 nucleotide exchange of wild-type KRAS (Homo sapiens (Human), UniProt Q07889); test: Mode of action assay: inhibition of SOS1 nucleotide exchange activity (TR-FRET); assay type: biochemical; conditions: SOS1 catalytic domain (564-1049), avi-tagged KRAS (1-169), EDA-GTP-DY-647P1; three replicates
Chain of SOS1 nucleotide exchange of wild-type KRAS (Q07889 564-1049): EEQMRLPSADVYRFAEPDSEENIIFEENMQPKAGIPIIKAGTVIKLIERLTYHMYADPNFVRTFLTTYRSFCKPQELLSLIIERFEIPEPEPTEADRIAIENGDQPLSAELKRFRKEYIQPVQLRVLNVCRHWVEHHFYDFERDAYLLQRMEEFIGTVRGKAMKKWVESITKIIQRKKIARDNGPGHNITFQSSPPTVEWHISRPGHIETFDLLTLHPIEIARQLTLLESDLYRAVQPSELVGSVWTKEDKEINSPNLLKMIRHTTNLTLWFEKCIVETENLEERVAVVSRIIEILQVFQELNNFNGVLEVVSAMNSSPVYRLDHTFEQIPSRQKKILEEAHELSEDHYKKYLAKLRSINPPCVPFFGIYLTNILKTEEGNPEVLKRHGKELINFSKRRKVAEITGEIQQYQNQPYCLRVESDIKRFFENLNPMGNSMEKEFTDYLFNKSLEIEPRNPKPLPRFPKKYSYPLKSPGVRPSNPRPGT

Chain of SOS1 catalytic domain (residues 564-1049) (Q07889 564-1049): as above

| Compound | Kd [1] | IC50 [2] | IC50 [3] |
| --- | --- | --- | --- |
| C[C@@H](Nc1ncnc2c1cc(C1(F)CCS(=O)(=NC3CC3)CC1)c(=O)n2C)c1cccc(C(F)F)c1F (single isomer, unassigned) [Example 57] | 9.19 nM | 42.6 nM | 7.65 nM |
| C[C@@H](Nc1ncnc2c1cc(C1=CCNC1)c(=O)n2C)c1cccc(C(F)F)c1F [Example 1-1] | 59.1 nM | 140 nM | 41.5 nM |
| C[C@@H](Nc1ncnc2c1cc(C1=CCNCC1)c(=O)n2C)c1cccc(C(F)(F)F)c1 [Example 1-2] | 13.4 nM | 114 nM | 23.8 nM |
| C[C@@H](Nc1ncnc2c1cc(C1=CCNCC1)c(=O)n2C)c1cccc(C(F)F)c1F [Example 1-3] | 7.86 nM | 50.3 nM | 21.2 nM |
| C[C@@H](Nc1ncnc2c1cc(C1=CCOCC1)c(=O)n2C)c1cccc(C(F)F)c1F [Example 1-5] | 16.3 nM | 222 nM | 32 nM |
| Cc1nc(N[C@H](C)c2cccc(C(F)F)c2F)c2cc(C3=CCOC3)c(=O)n(C)c2n1 [Example 1-7] | 353 nM | 693 nM | 257 nM |
| C[C@@H](Nc1ncnc2c1cc(C1=CCN(C)CC1)c(=O)n2C)c1cccc(C(F)(F)F)c1 [Example 1-8] | 20 nM | 169 nM | 20.1 nM |
| Cc1nc(N[C@H](C)c2cccc(C(F)F)c2F)c2cc(C3=CCNCC3)c(=O)n(C)c2n1 [Example 1-9] | 74 nM | 666 nM | 48.9 nM |
| Cc1nc(N[C@H](C)c2cccc(C(F)F)c2F)c2cc(C3=CCN(C)CC3)c(=O)n(C)c2n1 [Example 1-10] | 23.2 nM | 425 nM | 42.9 nM |
| CC(=O)N1CC=C(c2cc3c(N[C@H](C)c4cccc(C(F)F)c4C)ncnc3n(C)c2=O)CC1 [Example 1-11] | 54.6 nM | 77 nM | 29.3 nM |
| CC(=O)N1CC=C(c2cc3c(N[C@H](C)c4cccc(C(C)(F)F)c4)ncnc3n(C)c2=O)CC1 [Example 1-12] | 36.8 nM | 125 nM | 34 nM |
| C[C@@H](Nc1ncnc2c1cc(C1=C[C@H]3CNC[C@@H](C1)O3)c(=O)n2C)c1cccc(C(F)F)c1F [Example 1-13] | 13.8 nM | 195 nM | 19.3 nM |
| CC(=O)N1CCC=C(c2cc3c(N[C@H](C)c4cccc(C(F)F)c4F)ncnc3n(C)c2=O)C1 [Example 1-14] | 19 nM | 218 nM | 53 nM |
| C[C@@H](Nc1ncnc2c1cc(C1=C[C@@H]3CNC[C@H](C1)O3)c(=O)n2C)c1cccc(C(F)F)c1F [Example 1-15] | 6.29 nM | 217 nM | 39.8 nM |
| C[C@@H](Nc1ncnc2c1cc(C1=CCS(=O)(=O)CC1)c(=O)n2C)c1cccc(C(F)F)c1F [Example 1-17] | 21.3 nM | 50.7 nM | 13 nM |
| CC(=O)N1CC=C(c2cc3c(N[C@H](C)c4cccc5c4OCC5(F)F)ncnc3n(C)c2=O)CC1 [Example 1-18] | 22 nM | 67 nM | 12.8 nM |
| CC(=O)N1CC=C(c2cc3c(N[C@H](C)c4cccc(C(F)(F)F)c4C)ncnc3n(C)c2=O)CC1 [Example 1-19] | 144 nM | 91 nM | 44.3 nM |
| CC(=O)N1CC=C(c2cc3c(N[C@H](C)c4cccc(C(F)F)c4F)nc(C)nc3n(C)c2=O)CC1 [Example 1-21] | 137 nM | 173 nM | 95.6 nM |
| CC(=O)N1CC=C(c2cc3c(N[C@H](C)c4cccc(C(F)F)c4Cl)ncnc3n(C)c2=O)CC1 [Example 1-23] | 122 nM | 70.2 nM | 94 nM |
| Cc1nc(N[C@H](C)c2cccc(C(F)F)c2F)c2cc(C3=CCS(=O)(=O)CC3)c(=O)n(C)c2n1 [Example 1-25] | 101 nM | 83.7 nM | 67.3 nM |
| Cc1nc(N[C@H](C)c2cccc(C(F)F)c2F)c2cc(C3=CCN(C4COC4)CC3)c(=O)n(C)c2n1 [Example 1-26] | 61 nM | 260 nM | 26.4 nM |
| Cc1nc(N[C@H](C)c2cccc(C(F)F)c2F)c2cc(C3CCOC3)c(=O)n(C)c2n1 (stereo partly drawn) [Example 1-29] | 157 nM | 309 nM | 129 nM |
| C[C@@H](Nc1ncnc2c1cc(C1CCOCC1)c(=O)n2C)c1cccc(C(F)F)c1F [Example 1-30] | 20.1 nM | 143 nM | 45.8 nM |
| Cc1nc(N[C@H](C)c2cccc(C(F)F)c2F)c2cc(N3CCNCC3=O)c(=O)n(C)c2n1 [Example 2-4] | 153 nM | 906 nM | 89.2 nM |
| Cc1nc(N[C@H](C)c2cccc(C(F)F)c2F)c2cc(N3CCN(C)CC3=O)c(=O)n(C)c2n1 [Example 2-5] | 97 nM | 824 nM | 112 nM |
| C[C@@H](Nc1ncnc2c1cc(C1CN(C)CCO1)c(=O)n2C)c1cccc(C(F)F)c1F (stereo partly drawn) [Example 8-1] | 24.2 nM | 68.4 nM | 24.6 nM |
| Cc1nc(N[C@H](C)c2cccc(C(F)F)c2F)c2cc(C3CCN(C)CC3)c(=O)n(C)c2n1 [Example 8-2] | 64.4 nM | 265 nM | 21.2 nM |

| Compound | Kd [1] | IC50 [2] | IC50 [3] |
| --- | --- | --- | --- |
| C[C@@H](Nc1ncnc2c1cc(C1CCN(CCF)CC1)c(=O)n2C)c1cccc(C(F)F)c1F [Example 8-4] | 29.4 nM | – | 7.66 nM |
| C[C@@H](Nc1ncnc2c1cc(C1CCS(=O)(=O)CC1)c(=O)n2C)c1cccc(C(F)F)c1F [Example 8-5] | 37.6 nM | – | 12.8 nM |
| C[C@@H](Nc1ncnc2c1cc(C1CCN(C3COC3)CC1)c(=O)n2C)c1cccc(C(F)F)c1F [Example 8-8] | 62 nM | – | 30.5 nM |
| CC(=O)N1CCC(c2cc3c(N[C@H](C)c4cccc(C(F)F)c4F)nc(C)nc3n(C)c2=O)CC1 [Example 8-9] | 120 nM | – | 53.6 nM |
| Cc1nc(N[C@H](C)c2cccc(C(F)F)c2F)c2cc(C3CCS(=O)(=O)CC3)c(=O)n(C)c2n1 [Example 8-12] | 83.4 nM | – | 65 nM |
| C[C@@H](Nc1ncnc2c1cc(C1CCN(CC(F)F)CC1)c(=O)n2C)c1cccc(C(F)F)c1F [Example 8-13] | 156 nM | – | 39.8 nM |
| Cc1nc(N[C@H](C)c2cccc(C(F)F)c2F)c2cc(C3CCN(C4COC4)CC3)c(=O)n(C)c2n1 [Example 8-14] | 200 nM | – | 81.2 nM |
| C[C@@H](Nc1ncnc2c1cc(C1CCN(S(C)(=O)=O)CC1)c(=O)n2C)c1cccc(C(F)F)c1F [Example 8-15] | 90.4 nM | – | 40.1 nM |
| C[C@@H](Nc1ncnc2c1cc(C1CCN(CC(F)(F)F)CC1)c(=O)n2C)c1cccc(C(F)F)c1F [Example 8-16] | 136 nM | – | 77.5 nM |
| Cc1nc(N[C@H](C)c2cccc(C(F)F)c2F)c2cc(C3CCN(CC(F)(F)F)CC3)c(=O)n(C)c2n1 [Example 8-17] | 796 nM | – | 708 nM |
| C[C@@H](Nc1ncnc2c1cc(-c1ccc[nH]1)c(=O)n2C)c1cccc(C(F)F)c1F [Example 21-1] | 1160 nM | – | 1070 nM |
| C[C@@H](Nc1ncnc2c1cc(-c1cncnc1)c(=O)n2C)c1cccc(C(F)F)c1F [Example 21-2] | 85.4 nM | – | 42.9 nM |
| Cc1nc(N[C@H](C)c2cccc(C(F)F)c2F)c2cc(-c3ccnnc3)c(=O)n(C)c2n1 [Example 21-3] | 330 nM | – | 120 nM |
| Cc1nc(N[C@H](C)c2cccc(C(F)F)c2F)c2cc(-c3cncnc3)c(=O)n(C)c2n1 [Example 21-4] | 272 nM | – | 172 nM |
| C[C@@H](Nc1ncnc2c1cc(-c1cnc(F)nc1)c(=O)n2C)c1cccc(C(F)F)c1F [Example 21-5] | 115 nM | – | 126 nM |
| C[C@@H](Nc1ncnc2c1cc(-c1ccccc1C#N)c(=O)n2C)c1cccc(C(F)F)c1F [Example 21-6] | 118 nM | – | 86.4 nM |
| COc1ncccc1-c1cc2c(N[C@H](C)c3cccc(C(F)F)c3F)ncnc2n(C)c1=O [Example 21-7] | 92.5 nM | – | 47.1 nM |
| C[C@@H](Nc1ncnc2c1cc(-c1ccc3nonc3c1)c(=O)n2C)c1cccc(C(F)F)c1F [Example 21-8] | 336 nM | – | 235 nM |
| COc1ncccc1-c1cc2c(N[C@H](C)c3cccc(C(F)F)c3F)nc(C)nc2n(C)c1=O [Example 21-9] | 338 nM | 335 nM | 99 nM |
| COc1ccc(-c2cc3c(N[C@H](C)c4cccc(C(F)F)c4F)ncnc3n(C)c2=O)cc1OC [Example 21-10] | 849 nM | 611 nM | 532 nM |
| Cc1nc(N[C@H](C)c2cccc(C(F)F)c2F)c2cc(-c3cccnc3OCCO)c(=O)n(C)c2n1 [Example 21-11] | 234 nM | 452 nM | 173 nM |
| Cc1nc(N[C@H](C)c2cccc(C(F)F)c2F)c2cc(-c3cccn(CCO)c3=O)c(=O)n(C)c2n1 [Example 21-12] | 216 nM | 588 nM | 123 nM |
| Cc1nc(N[C@H](C)c2cccc(C(F)F)c2F)c2cc(C3=CCS(=N)(=O)CC3)c(=O)n(C)c2n1 (stereo partly drawn) [Example 23-1] | 86.2 nM | 76 nM | 78.3 nM |
| C[C@@H](Nc1ncnc2c1cc(C(=O)N1CC(F)C1)c(=O)n2C)c1cccc(C(F)F)c1F [Example 26-1] | 285 nM | 994 nM | 162 nM |
| C[C@@H](Nc1ncnc2c1cc(C(=O)N1CCOCC1)c(=O)n2C)c1cccc(C(F)F)c1F [Example 26-2] | 118 nM | 314 nM | 102 nM |
| C[C@@H](Nc1ncnc2c1cc(C(=O)N1CC(C)(O)C1)c(=O)n2C)c1cccc(C(F)F)c1F [Example 26-3] | 404 nM | 659 nM | 407 nM |
